Experiment: General observations in test persons using the diet with or without composition
Assay type: in vivo, human
Conditions: diet not adhered to, additional intake
Excerpt: It was observed that the application of the diet according to the invention by itself leads to a weight reduction. In all the test persons, however, side effects such as weakness and/or indisposition as well as gluttonous attacks were reported. […] This is due to the fact that with the intake of the composition that contains one or several active agents which promote fat burning, utilizable energy is made available and the fat burning is accelerated. A test person reported at the start of the reduction cycle on changing over to the diet in accordance with the invention combined with the simultaneous intake of a composition that contains one or several active agents which promote fat burning, that after 2-3 days, the feeling of indisposition or gluttonousness were no longer to be felt and the diet could be well adhered to.
Therefore, the composition contains, in a preferred embodiment in addition to one or several active agents that promote fat burning, one or several active agents that reduce the breakdown of fat to fatty acids in the intestines. Active agents that reduce the breakdown of fat to fatty acids in the intestines are herein active agents that inhibit enzymes which catalyse the breakdown of the fats (tricylglycerines) to fatty acids and glycerines. […] For a body weight deviating from this value, the quantity is to be appropriately adjusted.

C[N+](C)(C)C[C@H](O)CC(=O)[O-] [L-canitine, (3R)-hydroxy-4-(trimethylammonium)-butyrat]
weight loss: no weight loss
